Source: the supplement of paper PMC10307832

Columns and labels:
Test in all cases: relative viability (nuclei count vs DMSO), 5 days (fraction); higher = more cells survive
AZD5582 + Lapatinib = compound: C[C@@H](C(=O)N[C@@H](C1CCCCC1)C(=O)N2CCC[C@H]2C(=O)N[C@@H]3[C@@H](CC4=CC=CC=C34)OCC#CC#CCO[C@@H]5CC6=CC=CC=C6[C@@H]5NC(=O)[C@@H]7CCCN7C(=O)[C@H](C8CCCCC8)NC(=O)[C@H](C)NC)NC [AZD5582] + CS(=O)(=O)CCNCc1ccc(-c2ccc3ncnc(Nc4ccc(OCc5cccc(F)c5)c(Cl)c4)c3c2)o1 [Lapatinib] (partner 2 µM)
Method in brief: (§1)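 Each reported value is a median over duplicate plates. It expresses relative viability: treated-well nuclei count divided by vehicle-well nuclei count. Lung cancer cell lines in 1536-well plates were dosed by pin tool a day after seeding, alone with one drug or with a fixed anchor-drug dose plus five library-drug doses (not always all listed) in √10 steps, and nuclei were counted after 5 days.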

AZD5582 + Olaparib = compound: C[C@@H](C(=O)N[C@@H](C1CCCCC1)C(=O)N2CCC[C@H]2C(=O)N[C@@H]3[C@@H](CC4=CC=CC=C34)OCC#CC#CCO[C@@H]5CC6=CC=CC=C6[C@@H]5NC(=O)[C@@H]7CCCN7C(=O)[C@H](C8CCCCC8)NC(=O)[C@H](C)NC)NC [AZD5582] + O=C(c1cc(Cc2n[nH]c(=O)c3ccccc23)ccc1F)N1CCN(C(=O)C2CC2)CC1 [Olaparib] (partner 8 µM)
Method in brief: as §1

[1] = compound: Cn1nnc2c(C(N)=O)ncn2c1=O [Temozolomide] + Cc1cc(Nc2cc(N3CCN(C)CC3)nc(Sc3ccc(NC(=O)C4CC4)cc3)n2)n[nH]1 [Tozasertib] (partner 0.1 µM)
Method in brief: as §1

[2] = compound: Cn1nnc2c(C(N)=O)ncn2c1=O [Temozolomide] + Nc1ncn([C@H]2C[C@H](O)[C@@H](CO)O2)c(=O)n1 [Decitabine] (partner 2 µM)
Method in brief: as §1

Row | Cell Line | relative viability (AZD5582 + Lapatinib; first compound 0.001581 µM) | relative viability (AZD5582 + Lapatinib; first compound 0.005 µM) | relative viability (AZD5582 + Lapatinib; first compound 0.01581 µM) | relative viability (AZD5582 + Lapatinib; first compound 0.05 µM) | relative viability (AZD5582 + Olaparib; first compound 0.001581 µM) | relative viability (AZD5582 + Olaparib; first compound 0.005 µM) | relative viability (AZD5582 + Olaparib; first compound 0.01581 µM) | relative viability (AZD5582 + Olaparib; first compound 0.05 µM) | relative viability ([1]; first compound 0.2 µM) | relative viability ([1]; first compound 0.6325 µM) | relative viability ([1]; first compound 2 µM) | relative viability ([1]; first compound 6.325 µM) | relative viability ([1]; first compound 20 µM) | relative viability ([2]; first compound 0.2 µM) | relative viability ([2]; first compound 0.6325 µM) | relative viability ([2]; first compound 2 µM) | relative viability ([2]; first compound 6.325 µM) | relative viability ([2]; first compound 20 µM)
1 | 201T | 1.03 | 1.16 | 1.05 | 1.2 | 0.916 | 0.904 | 0.778 | 0.989 | 1.01 | 0.888 | 0.987 | 0.943 | 0.914 | 0.832 | 0.877 | 0.866 | 0.821 | 0.843
2 | A549 | 0.896 | 0.983 | 0.898 | 0.851 | 0.283 | 0.301 | 0.292 | 0.36 |  |  |  |  |  | 0.314 | 0.184 | 0.289 | 0.246 | 0.207
3 | A-427 | 0.865 | 0.996 | 0.942 | 0.831 | 0.678 | 0.716 | 0.729 | 0.59 | 0.201 | 0.206 | 0.219 | 0.152 | 0.157 | 0.565 | 0.538 | 0.459 | 0.443 | 0.396
4 | ABC-1 | 0.932 | 1.19 | 1.01 | 1.44 | 0.845 | 0.724 | 0.891 | 0.976 | 0.158 | 0.138 | 0.196 | 0.164 | 0.218 | 0.931 | 0.878 | 1.59 | 0.94 | 1.24
5 | BEN | 0.478 | 0.67 | 0.764 | 0.417 | 1.09 | 0.985 | 1.02 | 1.17 | 0.465 | 0.5 | 0.415 | 0.526 | 0.436 | 0.77 | 0.677 | 0.808 | 0.7 | 0.659
6 | CAL-12T | 0.293 | 0.434 | 0.382 | 0.326 | 0.558 | 0.534 | 0.636 | 0.373 | 0.335 | 0.339 | 0.347 | 0.34 | 0.382 |  |  |  |  | 
7 | COR-L23 | 0.982 | 1.08 | 1.07 | 1.1 | 0.307 | 0.378 | 0.32 | 0.329 | 0.2 | 0.213 | 0.227 | 0.206 | 0.198 | 0.452 | 0.493 | 0.478 | 0.419 | 0.404
8 | COR-L 105 | 0.351 | 0.424 | 0.315 | 0.421 | 0.619 | 0.673 | 0.729 | 0.732 | 0.342 | 0.386 | 0.453 | 0.378 | 0.371 | 0.691 | 0.643 | 0.649 | 0.739 | 0.535
9 | Calu-6 | 0.626 | 0.662 | 1.14 | 0.568 | 0.489 |  | 0.629 | 0.258 |  |  |  |  |  |  |  |  |  | 
10 | ChaGo-K-1 |  |  |  |  | 0.435 | 0.41 | 0.421 | 0.442 | 0.263 | 0.209 | 0.3 | 0.191 | 0.226 | 0.521 | 0.524 | 0.529 | 0.54 | 0.507
11 | EBC-1 | 0.187 | 0.226 | 0.193 | 0.255 | 0.646 | 0.707 | 0.639 | 0.571 |  |  |  |  |  |  |  |  |  | 
12 | EKVX | 0.207 | 0.209 | 0.169 | 0.199 | 0.777 | 0.894 | 0.725 | 0.854 | 0.256 | 0.395 | 0.385 | 0.335 | 0.42 |  | 0.295 | 0.236 | 0.34 | 0.221
13 | EMC-BAC-2 | 0.782 | 0.903 | 0.865 | 0.564 | 0.43 | 0.446 | 0.437 | 0.446 | 0.326 | 0.309 | 0.274 | 0.255 | 0.314 | 1.01 | 1.05 | 1.01 | 0.993 | 0.927
14 | EPLC-272H | 0.313 | 0.16 | 0.573 | 0.11 |  |  | 0.955 | 0.0712 | 0.263 | 0.191 | 0.232 | 0.28 | 0.252 | 0.357 | 0.395 | 0.385 | 0.401 | 0.312
15 | H3255 | 0.249 | 0.284 | 0.208 | 0.216 | 0.489 | 0.598 | 0.553 | 0.481 |  | 0.534 | 0.613 | 0.532 | 0.17 |  | 0.652 | 0.812 | 0.514 | 0.187
16 | HARA | 0.789 | 0.943 | 0.756 | 0.698 | 0.76 | 0.761 | 0.812 | 0.841 | 0.0933 | 0.112 | 0.107 | 0.11 | 0.108 | 0.677 | 0.607 | 0.594 | 0.523 | 0.489
17 | HCC-15 | 0.644 | 0.734 | 0.521 | 0.655 | 0.615 | 0.624 | 0.622 | 0.598 | 0.522 | 0.412 | 0.5 | 0.384 | 0.599 | 0.738 | 0.633 | 0.588 | 0.617 | 0.798
